Literature values in article PMC9516332 (Frontiers in Oncology, 2022).
Read-outs that look alike come from different tables or passages of the source.

Assays:
Details in all cases: cited from earlier work
[1] = target: panel of 255 wild-type kinases (Homo sapiens, UniProt P22612)
[2] = target: panel of 255 wild-type kinases (Homo sapiens, UniProt Q14012)
[3] = tested on: panel of 255 wild-type kinases
[4] = target: panel of 255 wild-type kinases (Homo sapiens, UniProt P22694)
[5] = target: panel of 255 wild-type kinases (Homo sapiens, UniProt Q9HBH9)
[6] = target: T1, panel of 255 wild-type kinases (Homo sapiens, UniProt O14965)
T1 sequence (O14965 1-403): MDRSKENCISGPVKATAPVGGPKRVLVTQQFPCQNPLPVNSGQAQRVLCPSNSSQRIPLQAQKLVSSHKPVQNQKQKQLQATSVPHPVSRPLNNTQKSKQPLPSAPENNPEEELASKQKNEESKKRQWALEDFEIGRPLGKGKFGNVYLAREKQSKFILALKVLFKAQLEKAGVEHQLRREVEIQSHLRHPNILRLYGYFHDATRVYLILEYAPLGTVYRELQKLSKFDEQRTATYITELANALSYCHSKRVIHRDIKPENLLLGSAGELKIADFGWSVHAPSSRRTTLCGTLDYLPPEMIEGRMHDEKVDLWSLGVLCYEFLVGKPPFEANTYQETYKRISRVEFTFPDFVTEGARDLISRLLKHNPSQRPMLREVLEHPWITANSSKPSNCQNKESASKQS

[7] = target: panel of 255 wild-type kinases (Homo sapiens, UniProt Q9H0K1)
[8] = target: panel of 255 wild-type kinases (Homo sapiens, UniProt Q9H1R3)
[9] = target: panel of 255 wild-type kinases (Homo sapiens, UniProt P00533)
[10] = target: panel of 255 wild-type kinases (Homo sapiens, UniProt P11309)
[11] = target: panel of 255 wild-type kinases (Homo sapiens, UniProt Q16512)
[12] = target: panel of 255 wild-type kinases (Homo sapiens, UniProt Q13555)
[13] = target: T2, panel of 255 wild-type kinases (Homo sapiens, UniProt P54760)
T2 sequence (P54760 16-987): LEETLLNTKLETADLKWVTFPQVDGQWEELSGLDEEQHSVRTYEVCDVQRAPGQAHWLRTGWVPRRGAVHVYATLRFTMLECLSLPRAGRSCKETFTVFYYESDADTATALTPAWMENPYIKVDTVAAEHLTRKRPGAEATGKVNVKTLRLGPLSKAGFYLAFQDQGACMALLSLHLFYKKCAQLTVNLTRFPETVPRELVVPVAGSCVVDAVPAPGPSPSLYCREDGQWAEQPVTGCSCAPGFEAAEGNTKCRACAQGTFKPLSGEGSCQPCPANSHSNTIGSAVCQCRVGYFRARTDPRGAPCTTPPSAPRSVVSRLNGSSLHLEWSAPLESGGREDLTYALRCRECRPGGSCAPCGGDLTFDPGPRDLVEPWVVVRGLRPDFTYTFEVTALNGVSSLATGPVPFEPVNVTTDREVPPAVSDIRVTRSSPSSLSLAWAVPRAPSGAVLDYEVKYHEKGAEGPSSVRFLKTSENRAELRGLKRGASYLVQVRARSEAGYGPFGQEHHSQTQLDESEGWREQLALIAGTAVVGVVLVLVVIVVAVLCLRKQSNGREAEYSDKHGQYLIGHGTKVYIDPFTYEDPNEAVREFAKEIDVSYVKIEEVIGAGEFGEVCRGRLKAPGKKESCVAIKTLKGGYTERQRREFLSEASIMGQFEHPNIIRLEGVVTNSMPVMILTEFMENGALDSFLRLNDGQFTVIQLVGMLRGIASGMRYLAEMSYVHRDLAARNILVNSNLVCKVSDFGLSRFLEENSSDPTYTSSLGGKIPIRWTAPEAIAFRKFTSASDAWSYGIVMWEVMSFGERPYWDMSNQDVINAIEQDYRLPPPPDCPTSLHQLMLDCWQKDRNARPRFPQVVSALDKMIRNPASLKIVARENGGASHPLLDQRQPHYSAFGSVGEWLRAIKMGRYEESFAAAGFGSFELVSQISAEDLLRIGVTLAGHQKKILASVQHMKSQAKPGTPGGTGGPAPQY

[14] = kinase PKACγ, 1 µmol/L single concentration, ref DOI: 10.1158/1535-7163.MCT-18-0877
[15] = CaMK1α kinase assay, 1 µmol/L single concentration, ref DOI: 10.1158/1535-7163.MCT-18-0877
[16] = kinase FYN [isoform b], 1 µmol/L single concentration, ref DOI: 10.1158/1535-7163.MCT-18-0877
[17] = kinase LYNb, 1 µmol/L single concentration, ref DOI: 10.1158/1535-7163.MCT-18-0877
[18] = kinase PKCβ2, 1 µmol/L single concentration, ref DOI: 10.1158/1535-7163.MCT-18-0877
[19] = kinase SRM, 1 µmol/L single concentration, ref DOI: 10.1158/1535-7163.MCT-18-0877
[20] = kinase PKACβ, 1 µmol/L single concentration, ref DOI: 10.1158/1535-7163.MCT-18-0877
[21] = MNK2, 1 µmol/L single concentration, ref DOI: 10.1158/1535-7163.MCT-18-0877
[22] = AurA kinase assay, 1 µmol/L single concentration, ref DOI: 10.1158/1535-7163.MCT-18-0877
[23] = AurA/TPX2 kinase assay, 1 µmol/L single concentration, ref DOI: 10.1158/1535-7163.MCT-18-0877
[24] = kinase QIK, 1 µmol/L single concentration, ref DOI: 10.1158/1535-7163.MCT-18-0877
[25] = kinase skMLCK, 1 µmol/L single concentration, ref DOI: 10.1158/1535-7163.MCT-18-0877
[26] = kinase EGFR, 1 µmol/L single concentration, ref DOI: 10.1158/1535-7163.MCT-18-0877
[27] = kinase PIM1, 1 µmol/L single concentration, ref DOI: 10.1158/1535-7163.MCT-18-0877
[28] = kinase PKN1, 1 µmol/L single concentration, ref DOI: 10.1158/1535-7163.MCT-18-0877
[29] = CaMK2γ kinase assay, 1 µmol/L single concentration, ref DOI: 10.1158/1535-7163.MCT-18-0877
[30] = kinase EPHB4, 1 µmol/L single concentration, ref DOI: 10.1158/1535-7163.MCT-18-0877
[31] = kinase PKACγ, 1 µmol/L single concentration, ref DOI: 10.1371/journal.pone.0092146
[32] = CaMK1α kinase assay, 1 µmol/L single concentration, ref DOI: 10.1371/journal.pone.0092146
[33] = kinase LYNb, 1 µmol/L single concentration, ref DOI: 10.1371/journal.pone.0092146
[34] = kinase PKCβ2, 1 µmol/L single concentration, ref DOI: 10.1371/journal.pone.0092146
[35] = kinase SRM, 1 µmol/L single concentration, ref DOI: 10.1371/journal.pone.0092146
[36] = kinase PKACβ, 1 µmol/L single concentration, ref DOI: 10.1371/journal.pone.0092146
[37] = MNK2, 1 µmol/L single concentration, ref DOI: 10.1371/journal.pone.0092146
[38] = AurA kinase assay, 1 µmol/L single concentration, ref DOI: 10.1371/journal.pone.0092146
[39] = AurA/TPX2 kinase assay, 1 µmol/L single concentration, ref DOI: 10.1371/journal.pone.0092146
[40] = kinase QIK, 1 µmol/L single concentration, ref DOI: 10.1371/journal.pone.0092146
[41] = kinase skMLCK, 1 µmol/L single concentration, ref DOI: 10.1371/journal.pone.0092146
[42] = kinase EGFR, 1 µmol/L single concentration, ref DOI: 10.1371/journal.pone.0092146
[43] = kinase PIM1, 1 µmol/L single concentration, ref DOI: 10.1371/journal.pone.0092146
[44] = kinase PKN1, 1 µmol/L single concentration, ref DOI: 10.1371/journal.pone.0092146
[45] = CaMK2γ kinase assay, 1 µmol/L single concentration, ref DOI: 10.1371/journal.pone.0092146
[46] = kinase EPHB4, 1 µmol/L single concentration, ref DOI: 10.1371/journal.pone.0092146

CC#CC(=O)N1CCC[C@H]1c1nc(-c2ccc(C(=O)Nc3ccccn3)cc2)c2c(N)nccn12 [acalabrutinib]
%-inhibition at 1 µmol/L, PKACγ [1, 14]: 1.68%
%-inhibition CaMK1α [2, 15]: -4.29%
%-inhibition at 1 µmol/L, FYN [isoform b] [3, 16]: -1.25%
%-inhibition at 1 µmol/L, LYNb [3, 17]: -2%
%-inhibition at 1 µmol/L, PKCβ2 [3, 18]: -12%
%-inhibition at 1 µmol/L, SRM [3, 19]: 39%
%-inhibition at 1 µmol/L, PKACβ [4, 20]: -13%
%-inhibition, MNK2 [5, 21]: 12%
%-inhibition AurA [6, 22]: 2.34%
%-inhibition AurA/TPX2 [6, 23]: -4.71%
%-inhibition at 1 µmol/L, QIK [7, 24]: -0.215%
%-inhibition at 1 µmol/L, skMLCK [8, 25]: -17%
%-inhibition at 1 µmol/L, EGFR [9, 26]: 19%
%-inhibition at 1 µmol/L, PIM1 [10, 27]: -4.28%
%-inhibition at 1 µmol/L, PKN1 [11, 28]: 11%
%-inhibition CaMK2γ [12, 29]: -1.85%
%-inhibition at 1 µmol/L, EPHB4 [13, 30]: -1.45%

COc1cc(N2CCC(N3CCN(C)CC3)CC2)ccc1Nc1ncc(Cl)c(Nc2ccccc2P(C)(C)=O)n1 [brigatinib]
%-inhibition at 1 µmol/L, PKACγ [1]: 9%
%-inhibition CaMK1α [2]: 28%
%-inhibition at 1 µmol/L, FYN [isoform b] [3]: 56%
%-inhibition at 1 µmol/L, LYNb [3]: 43%
%-inhibition at 1 µmol/L, PKCβ2 [3]: 31%
%-inhibition at 1 µmol/L, SRM [3]: 92%
%-inhibition at 1 µmol/L, PKACβ [4]: 9%
%-inhibition, MNK2 [5]: 66%
%-inhibition AurA [6]: 79%
%-inhibition AurA/TPX2 [6]: 74%
%-inhibition at 1 µmol/L, QIK [7]: 100%
%-inhibition at 1 µmol/L, skMLCK [8]: -6%
%-inhibition at 1 µmol/L, EGFR [9]: 97%
%-inhibition at 1 µmol/L, PIM1 [10]: 3%
%-inhibition at 1 µmol/L, PKN1 [11]: 77%
%-inhibition CaMK2γ [12]: 96%
%-inhibition at 1 µmol/L, EPHB4 [13]: 9%

O=C(c1ccc(F)c(F)c1Nc1ccc(I)cc1F)N1CC(O)([C@@H]2CCCCN2)C1 [cobimetinib]
%-inhibition at 1 µmol/L, PKACγ [1, 14]: 4.37%
%-inhibition CaMK1α [2, 15]: 9%
%-inhibition at 1 µmol/L, FYN [isoform b] [3, 16]: -0.687%
%-inhibition at 1 µmol/L, LYNb [3, 17]: 8%
%-inhibition at 1 µmol/L, PKCβ2 [3, 18]: -2%
%-inhibition at 1 µmol/L, SRM [3, 19]: 1.37%
%-inhibition at 1 µmol/L, PKACβ [4, 20]: -6.51%
%-inhibition, MNK2 [5, 21]: 8%
%-inhibition AurA [6, 22]: -0.696%
%-inhibition AurA/TPX2 [6, 23]: -1.88%
%-inhibition at 1 µmol/L, QIK [7, 24]: 2.37%
%-inhibition at 1 µmol/L, skMLCK [8, 25]: -10%
%-inhibition at 1 µmol/L, EGFR [9, 26]: 8%
%-inhibition at 1 µmol/L, PIM1 [10, 27]: 1%
%-inhibition at 1 µmol/L, PKN1 [11, 28]: 19%
%-inhibition CaMK2γ [12, 29]: -2.31%
%-inhibition at 1 µmol/L, EPHB4 [13, 30]: -2.41%

CC(=O)Nc1cccc(-n2c(=O)n(C3CC3)c(=O)c3c(Nc4ccc(I)cc4F)n(C)c(=O)c(C)c32)c1 [trametinib]
%-inhibition at 1 µmol/L, PKACγ [1, 31]: 2%
%-inhibition CaMK1α [2, 32]: -2%
%-inhibition at 1 µmol/L, LYNb [3, 33]: -2.58%
%-inhibition at 1 µmol/L, PKCβ2 [3, 34]: -1.58%
%-inhibition at 1 µmol/L, SRM [3, 35]: -4%
%-inhibition at 1 µmol/L, PKACβ [4, 36]: -5%
%-inhibition, MNK2 [5, 37]: -11%
%-inhibition AurA [6, 38]: -2%
%-inhibition AurA/TPX2 [6, 39]: -5.37%
%-inhibition at 1 µmol/L, QIK [7, 40]: -4.66%
%-inhibition at 1 µmol/L, skMLCK [8, 41]: -3.34%
%-inhibition at 1 µmol/L, EGFR [9, 42]: -0.0959%
%-inhibition at 1 µmol/L, PIM1 [10, 43]: 4.44%
%-inhibition at 1 µmol/L, PKN1 [11, 44]: 3.71%
%-inhibition CaMK2γ [12, 45]: 7%
%-inhibition at 1 µmol/L, EPHB4 [13, 46]: -3.38%

CCCS(=O)(=O)Nc1ccc(F)c(C(=O)c2c[nH]c3ncc(-c4ccc(Cl)cc4)cc23)c1F [vemurafenib]
%-inhibition at 1 µmol/L, PKACγ [1, 31]: -3%
%-inhibition CaMK1α [2, 32]: -3.18%
%-inhibition at 1 µmol/L, LYNb [3, 33]: 62%
%-inhibition at 1 µmol/L, PKCβ2 [3, 34]: -3%
%-inhibition at 1 µmol/L, SRM [3, 35]: 102%
%-inhibition at 1 µmol/L, PKACβ [4, 36]: 2.66%
%-inhibition, MNK2 [5, 37]: 27%
%-inhibition AurA [6, 38]: 23%
%-inhibition AurA/TPX2 [6, 39]: -2.59%
%-inhibition at 1 µmol/L, QIK [7, 40]: 6%
%-inhibition at 1 µmol/L, skMLCK [8, 41]: 53%
%-inhibition at 1 µmol/L, EGFR [9, 42]: 7%
%-inhibition at 1 µmol/L, PIM1 [10, 43]: -3.41%
%-inhibition at 1 µmol/L, PKN1 [11, 44]: -0.378%
%-inhibition CaMK2γ [12, 45]: -10%
%-inhibition at 1 µmol/L, EPHB4 [13, 46]: 3.73%
